# Assay results as given in ChEMBL document CHEMBL4842340, “Development of Cagrilintide, a Long-Acting Amylin Analogue” (J Med Chem, 2021).
# *1 amine or outer side, *2 acyl side, *3 side chain or, on linkers, in order; H or OH if unused. Where a SMILES comes first, the peptide text is derived from it. Bridges are numbered along the chain shown (N, C = ends). [ ]: non-standard residue; d: D form. The star is where a group is joined. X1 = O=C(NC(=O)[C@H](Cc1cnc[nH]1)N[*:1])[C@@H](Cc1cnc[nH]1)C(=O)[*:2]; C20 diacid = O=C(O)CCCCCCCCCCCCCCCCCCC(=O)*; γGlu = O=C(O)[C@H](CCC(=O)[*:2])N[*:1]; hArg = N=C(N)NCCCC[C@H](N)C(=O)O; Agb = N=C(N)NCC[C@H](N)C(=O)O
# What was measured:
# [1] = Agonist activity at rat calcitonin receptor expressed in BHK-13 cells assessed as increase in intracellular cAMP concentration incubated for 25 mins by CRE luciferase reporter gene assay; format: cell-based; settings: BHK-13, 25 min
# [2] = Solubility of the compound in lactate at pH 3 by UPLC analysis; format: physicochemical; settings: lactate buffer
# Homo sapiens = species on record: Homo sapiens; test: Ratio of EC50 for human calcitonin receptor expressed in BHK570 cells to EC50 for human AMY3R (CT+RAMP3) expressed in Hollex1 cells; format: cell-based
# Insulin (Homo sapiens) [3] = molecular target: Insulin (Homo sapiens) (UniProt P01308); test: Effect on insulin (unknown origin) amyloid fibril formation assessed as lag time in glycyl-glycine buffer at pH 4 measured after 45 hrs by thioflavin-T fluorescence assay
# Sequence of Insulin (Homo sapiens) (P01308 whole entry): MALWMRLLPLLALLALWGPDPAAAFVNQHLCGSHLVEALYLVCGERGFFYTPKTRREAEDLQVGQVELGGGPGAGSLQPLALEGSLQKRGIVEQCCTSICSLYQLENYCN
# [4] = Solubility of the compound in bis-tris propane at pH 6 by UPLC analysis; format: physicochemical; settings: bis-tris propane buffer
# [5] = Solubility of the compound in lactate at pH 4 by UPLC analysis; format: physicochemical; settings: lactate buffer
# [6] = Solubility of the compound in bis-tris propane at pH 8 by UPLC analysis; format: physicochemical; settings: bis-tris propane buffer
# [7] = Agonist activity at rat AMY3R (CT+RAMP3) expressed in tk-ts13 cells assessed as increase in intracellular cAMP level incuabted for 25 mins by CRE luciferase reporter gene assay; format: cell-based; settings: tk-ts13, 25 min
# [8] = Agonist activity at human AMY3R (CT+RAMP3) expressed in Hollex1 cells incubated for 3 hrs by luminescence assay; format: cell-based; settings: Hollex1, 3 h
# Rattus norvegicus [9] = test: Reduction in food intake in Sprague-Dawley rat at 30 nmol/kg, sc administered as single dose measured upto 24 hrs relative to control; format: functional; parameters: scale not given: the % may be the effect or the level left; settings: time hrs <=24
# Insulin (Homo sapiens) [10] = molecular target: Insulin (Homo sapiens) (UniProt P01308); test: Effect on insulin (unknown origin) amyloid fibril formation assessed as peptide recovery in glycyl-glycine buffer at pH 4 measured after 45 hrs by thioflavin-T fluorescence assay relative to control; parameters: concentration or dose not given beside the values
# [11] = Displacement of [125I]-amylin from human AMY3R (CTR+RAMP3) expressed in BHK-13 cells measured after 120 mins by scintillation proximity assay; format: cell-based
# [12] = Solubility of the compound in lactate at pH 5 by UPLC analysis; format: physicochemical; settings: lactate buffer
# Rattus norvegicus [13] = test: Reduction in food intake in Sprague-Dawley rat at 30 nmol/kg, sc administered as single dose measured after 24 to 48 hrs relative to control; format: functional; parameters: scale not given: the % may be the effect or the level left; settings: time 24-48 hrs
# Rattus norvegicus [14] = species on record: Rattus norvegicus; test: Ratio of EC50 for rat calcitonin receptor expressed in BHK-13 cells to EC50 for rat AMY3R (CT+RAMP3) expressed in tk-ts13 cells; format: cell-based
# [15] = Agonist activity at human calcitonin receptor expressed in BHK570 cells assessed as increase in intracellular cAMP concentration incubated for 3 hrs in absence of albumin by CRE luciferase reporter gene assay; format: cell-based; settings: BHK570, 3 h
# [16] = Solubility of the compound in bis-tris propane at pH 6.5 by UPLC analysis; format: physicochemical; settings: bis-tris propane buffer
# [17] = Solubility of the compound in bis-tris propane at pH 7 by UPLC analysis; format: physicochemical; settings: bis-tris propane buffer
# [18] = Solubility of the compound in bis-tris propane at pH 7.5 by UPLC analysis; format: physicochemical; settings: bis-tris propane buffer
Compound,EC50 [1],solubility [2],Ratio EC50 (Homo sapiens),TIME (Insulin (Homo sapiens) [3]),solubility [4],solubility [5],solubility [6],EC50 [7],EC50 [8],Activity (Rattus norvegicus [9]),Activity (Insulin (Homo sapiens) [10]),IC50 [11],solubility [12],Activity (Rattus norvegicus [13]),Ratio EC50 (Rattus norvegicus [14]),EC50 [15],solubility [16],solubility [17],solubility [18]
CC[C@H](C)[C@H](NC(=O)[C@@H]1CCCN1C(=O)CNC(=O)[C@H](Cc1ccccc1)NC(=O)[C@H](CC(N)=O)NC(=O)[C@H](CC(N)=O)NC(=O)[C@H](CO)NC(=O)[C@H](CO)NC(=O)[C@H](Cc1cnc[nH]1)NC(=O)[C@H](Cc1cnc[nH]1)NC(=O)[C@H](CC(C)C)NC(=O)[C@H](Cc1ccccc1)NC(=O)[C@H](CCC(=O)O)NC(=O)[C@H](C)NC(=O)[C@H](CC(C)C)NC(=O)[C@H](CCCNC(=N)N)NC(=O)[C@H](CCC(N)=O)NC(=O)[C@@H](NC(=O)[C@H](C)NC(=O)[C@@H]1CSSC[C@H](NC(=O)[C@H](Cc2cnc[nH]2)NC(=O)[C@H](Cc2cnc[nH]2)NC(=O)[C@H](Cc2cnc[nH]2)NC(=O)CC[C@H](NC(=O)CCCCCCCCCCCCCCCCCCC(=O)O)C(=O)O)C(=O)N[C@@H](CC(N)=O)C(=O)N[C@@H]([C@@H](C)O)C(=O)N[C@@H](C)C(=O)N[C@@H]([C@@H](C)O)C(=O)N1)[C@@H](C)O)C(=O)N[C@@H](CC(C)C)C(=O)N1CCC[C@H]1C(=O)N1CCC[C@H]1C(=O)N[C@H](C(=O)N[C@@H](CC(N)=O)C(=O)N[C@H](C(=O)NCC(=O)N[C@@H](CO)C(=O)N[C@@H](CC(N)=O)C(=O)N[C@H](C(=O)N[C@@H](Cc1ccc(O)cc1)C(N)=O)[C@@H](C)O)C(C)C)[C@@H](C)O ({C20 diacid-γGlu}-HHHCNTATCATQRLAEFLHHSSNNFGPILPPTNVGSNTY-NH2; disulfide 4-9),0.857 nM,200 µM,3,7 h,200 µM,200 µM,200 µM,0.083 nM,0.074 nM,87%,3%,0.723 nM,200 µM,92%,10,0.2 nM,,,
CC[C@H](C)[C@H](NC(=O)[C@@H]1CCCN1C(=O)CNC(=O)[C@H](Cc1ccccc1)NC(=O)[C@H](CC(N)=O)NC(=O)[C@H](CC(N)=O)NC(=O)[C@H](CO)NC(=O)[C@H](CO)NC(=O)[C@H](Cc1cnc[nH]1)NC(=O)[C@H](Cc1cnc[nH]1)NC(=O)[C@H](CC(C)C)NC(=O)[C@H](Cc1ccccc1)NC(=O)[C@H](CCCNC(=N)N)NC(=O)[C@H](C)NC(=O)[C@H](CC(C)C)NC(=O)[C@H](CCCNC(=N)N)NC(=O)[C@H](CCC(N)=O)NC(=O)[C@@H](NC(=O)[C@H](C)NC(=O)[C@@H]1CSSC[C@H](NC(=O)[C@H](Cc2cnc[nH]2)NC(=O)[C@H](Cc2cnc[nH]2)NC(=O)[C@H](Cc2cnc[nH]2)NC(=O)CC[C@H](NC(=O)CCCCCCCCCCCCCCCCCCC(=O)O)C(=O)O)C(=O)N[C@@H](CC(N)=O)C(=O)N[C@@H]([C@@H](C)O)C(=O)N[C@@H](C)C(=O)N[C@@H]([C@@H](C)O)C(=O)N1)[C@@H](C)O)C(=O)N[C@@H](CC(C)C)C(=O)N1CCC[C@H]1C(=O)N1CCC[C@H]1C(=O)N[C@H](C(=O)N[C@@H](CC(N)=O)C(=O)N[C@H](C(=O)NCC(=O)N[C@@H](CO)C(=O)N[C@@H](CC(N)=O)C(=O)N[C@H](C(=O)N[C@@H](Cc1ccc(O)cc1)C(N)=O)[C@@H](C)O)C(C)C)[C@@H](C)O ({C20 diacid-γGlu}-HHHCNTATCATQRLARFLHHSSNNFGPILPPTNVGSNTY-NH2; disulfide 4-9),7.09 nM,200 µM,6,10 h,200 µM,200 µM,,0.143 nM,0.069 nM,65%,10%,,200 µM,25%,50,0.398 nM,117 µM,1 µM,
CC[C@H](C)[C@H](NC(=O)[C@@H]1CCCN1C(=O)CNC(=O)[C@H](Cc1ccccc1)NC(=O)[C@H](CC(N)=O)NC(=O)[C@H](CC(N)=O)NC(=O)[C@H](CO)NC(=O)[C@H](CO)NC(=O)[C@H](Cc1cnc[nH]1)NC(=O)[C@H](Cc1cnc[nH]1)NC(=O)[C@H](CC(C)C)NC(=O)[C@H](Cc1ccccc1)NC(=O)[C@H](CC(N)=O)NC(=O)[C@H](C)NC(=O)[C@H](CC(C)C)NC(=O)[C@H](CCNC(=N)N)NC(=O)[C@H](CCC(N)=O)NC(=O)[C@@H](NC(=O)[C@H](C)NC(=O)[C@@H]1CSSC[C@H](NC(=O)[C@H](Cc2cnc[nH]2)NC(=O)[C@H](Cc2cnc[nH]2)C(=O)NC(=O)[C@H](Cc2cnc[nH]2)NC(=O)CC[C@H](NC(=O)CCCCCCCCCCCCCCCCCCC(=O)O)C(=O)O)C(=O)N[C@@H](CC(N)=O)C(=O)N[C@@H]([C@@H](C)O)C(=O)N[C@@H](C)C(=O)N[C@@H]([C@@H](C)O)C(=O)N1)[C@@H](C)O)C(=O)N[C@@H](CC(C)C)C(=O)N1CCC[C@H]1C(=O)N1CCC[C@H]1C(=O)N[C@H](C(=O)N[C@@H](CC(N)=O)C(=O)N[C@H](C(=O)NCC(=O)N[C@@H](CO)C(=O)N[C@@H](CC(N)=O)C(=O)N[C@H](C(=O)N[C@@H](Cc1ccc(O)cc1)C(N)=O)[C@@H](C)O)C(C)C)[C@@H](C)O ({C20 diacid-γGlu}-[X1]HCNTATCATQ[Agb]LANFLHHSSNNFGPILPPTNVGSNTY-NH2; disulfide 3-8),18.4 nM,200 µM,10,7 h,200 µM,200 µM,19 µM,1.03 nM,0.095 nM,28%,7%,1.29 nM,200 µM,0%,18,0.961 nM,115 µM,7 µM,5 µM
CC[C@H](C)[C@H](NC(=O)[C@@H]1CCCN1C(=O)CNC(=O)[C@H](Cc1ccccc1)NC(=O)[C@H](CC(N)=O)NC(=O)[C@H](CC(N)=O)NC(=O)[C@H](CO)NC(=O)[C@H](CO)NC(=O)[C@H](Cc1cnc[nH]1)NC(=O)[C@H](Cc1cnc[nH]1)NC(=O)[C@H](CC(C)C)NC(=O)[C@H](Cc1ccccc1)NC(=O)[C@H](CC(N)=O)NC(=O)[C@H](C)NC(=O)[C@H](CC(C)C)NC(=O)[C@H](CCCCNC(=N)N)NC(=O)[C@H](CCC(N)=O)NC(=O)[C@@H](NC(=O)[C@H](C)NC(=O)[C@@H]1CSSC[C@H](NC(=O)[C@H](Cc2cnc[nH]2)NC(=O)[C@H](Cc2cnc[nH]2)C(=O)NC(=O)[C@H](Cc2cnc[nH]2)NC(=O)CC[C@H](NC(=O)CCCCCCCCCCCCCCCCCCC(=O)O)C(=O)O)C(=O)N[C@@H](CC(N)=O)C(=O)N[C@@H]([C@@H](C)O)C(=O)N[C@@H](C)C(=O)N[C@@H]([C@@H](C)O)C(=O)N1)[C@@H](C)O)C(=O)N[C@@H](CC(C)C)C(=O)N1CCC[C@H]1C(=O)N1CCC[C@H]1C(=O)N[C@H](C(=O)N[C@@H](CC(N)=O)C(=O)N[C@H](C(=O)NCC(=O)N[C@@H](CO)C(=O)N[C@@H](CC(N)=O)C(=O)N[C@H](C(=O)N[C@@H](Cc1ccc(O)cc1)C(N)=O)[C@@H](C)O)C(C)C)[C@@H](C)O ({C20 diacid-γGlu}-[X1]HCNTATCATQ[hArg]LANFLHHSSNNFGPILPPTNVGSNTY-NH2; disulfide 3-8),4.48 nM,200 µM,4,4 h,200 µM,200 µM,25 µM,0.321 nM,0.102 nM,24%,21%,1.11 nM,200 µM,2%,7,0.391 nM,50 µM,2 µM,7 µM
